According to patent publication US3996359A, “Novel stereoisomeric component A of stereoisomeric mixtures of 2'-unsymmetrical 16,17-methylenedioxy steroid 21-acylates, compositions thereof, and method of treating therewith” (AB Bofors, priority 1972, dated 1976):

Test system: rats subjected to adrenalectomy (granuloma around implanted cotton wads)
Assay: granulom test (cotton-pellet test) on rats subjected to adrenalectomy: granuloma growth, thymus weight, body weight increase
Type: in vivo, rat (Sprague-Dawley)
Details: for Dose required to obtain 50% inhibition of Granuloma growth: Table 3, adrenalectomized young male Sprague-Dawley rats, topical in implanted cotton wads, day 8; for Dose required to obtain 25% inhibition of Body weight Increase / Dose required to obtain 50% inhibition of Thymus weight / ED25 body weight increase inhibition / ED50 thymus weight inhibition / Therapeutic ratio body weight/granuloma / Therapeutic ratio thymus/granuloma: rat, in vivo; for Dose required to obtain 25% inhibition of Body weight Increase / Dose required to obtain 50% inhibition of Thymus weight: 11520 min
From the text: In the following this active stereoisomeric component will always be designated B. As regards the steroids referred to in connection with the present invention the stereoisomeric mixture as well as the individual stereoisomeric components A and B have been investigated with regard to antiinflammatory activity in granulom test on rats subjected to adrenalectomy. The experimental procedure used corresponds largely to that described by G. Engelhardt: Arzneimittel-Forschung, 13, p. 588, 1963. According to this procedure the test substances are applied topically in the implanted cottom wads. It is thereby possible to study the local antiinflammatory effect in granulomas and also systemic effects in the form of retrogression of thymus and inhibition of bodyweight growth.
Young male rats of the Sprague-Dawley strain weighing about 110-130 g were subjected to adrenalectomy under ether narcosis. Two sterilized cottom wads of each about 6 mg were implanted simultaneously subcutaneously on the lateral side of the spinal. After awakening the animals were stored 5 per cage and were supplied with normal food and 1% sodium chloride solution as drinking water. On the eighth test day the animals were sacrificed by ether narcosis. The granuloma formed around the cotton wads were carefully recovered and thymus and body weights were measured. The two granuloma from each animal were dried over night at 80° C and weighed. After subtraction of the initial weight of the cotton wads the weight increase was used as a measure of the granulom growth.
The test substances were used dissolved in ethyl acetate. Under aseptic conditions 0.05 ml of said solutions were injected into each of the cotton wads, whereafter the solvent was allowed to evaporate in the desiccator. Normally 3 concentrations of each test substance with the standard doses 3.3, 30 and 270 γ/animal were investigated. Each test group normally comprised 10 rats. The cotton wads of the control group were injected with only ethyl acetate, but were in other respects treated in the same way. When considering the effects of the test substances the average values of granulom growth, thymus weight and body weight increase day 0-8 were measured in each group in absolute figures and in % of the corresponding figure of the control group. Dose-response curves were drafted and used for estimating the doses giving 50 % reduction of granulom growth and of thymus weight and 25 % decrease of body weight increase.
The following Table 4 discloses the results of the cotton-pellet test hereinbefore described, giving in addition figures for the therapeutic ratios, that is, the ratios of the ED50 for thymus weight inhibition divided by the ED50 for granuloma formation inhibition, and the ED25 for body weight increase inhibition over the ED50 for granuloma formation inhibition. As will be recognized, the higher the number for the therapeutic ratio, the more favorable the therapeutic ratio. […] As will be noted for the table, the therapeutic ratio for thymus over granuloma for the Component A esters is 4.2, 7.1, 4.5, 2.6, 2.2, 1.7, 2.5 and 1.7 times as good as it is for the corresponding Component B ester isomer, whereas the therapeutic ratio for the Component A ester isomer as far as body weight is granuloma 2.7, 3.3, 9.8, 6.4, 2.3, 2.8, 3.3 and 2.8 times as favorable as for the corresponding Component B ester isomer.

SMILES | Dose required to obtain 50% inhibition of Granuloma growth | Dose required to obtain 25% inhibition of Body weight Increase | Dose required to obtain 50% inhibition of Thymus weight | ED25 body weight increase inhibition [µg/animal] | ED50 thymus weight inhibition [µg/animal] | Therapeutic ratio body weight/granuloma | Therapeutic ratio thymus/granuloma
CCCC1O[C@@H]2C[C@H]3[C@@H]4CCC5=CC(=O)C=C[C@]5(C)[C@H]4[C@@H](O)C[C@]3(C)[C@]2(C(=O)CO)O1 (single isomer, unassigned) [12 A] | 125 γ/animal | > 270 γ/animal | 125 γ/animal |  |  |  | 
CCCC1O[C@@H]2C[C@H]3[C@@H]4CCC5=CC(=O)C=C[C@]5(C)[C@H]4[C@@H](O)C[C@]3(C)[C@]2(C(=O)CO)O1 (single isomer, unassigned) [12 B] | 40 γ/animal | 50 γ/animal | 70 γ/animal |  |  |  | 
CCCCCC1O[C@@H]2C[C@H]3[C@@H]4CCC5=CC(=O)C=C[C@]5(C)[C@H]4[C@@H](O)C[C@]3(C)[C@]2(C(=O)CO)O1 (single isomer, unassigned) [13 A] | 8 γ/animal | 100 γ/animal | > 270 γ/animal |  |  |  | 
CCCCCC1O[C@@H]2C[C@H]3[C@@H]4CCC5=CC(=O)C=C[C@]5(C)[C@H]4[C@@H](O)C[C@]3(C)[C@]2(C(=O)CO)O1 (single isomer, unassigned) [13 B] | 5 γ/animal | > 270 γ/animal | 210 γ/animal |  |  |  | 
CC1O[C@@H]2C[C@H]3[C@@H]4CCC5=CC(=O)C=C[C@]5(C)[C@@]4(F)[C@@H](O)C[C@]3(C)[C@]2(C(=O)COC(=O)c2cccnc2)O1 (single isomer, unassigned) [17 A] | 7 γ/animal | 20 γ/animal | 45 γ/animal |  |  |  | 
CC1O[C@@H]2C[C@H]3[C@@H]4CCC5=CC(=O)C=C[C@]5(C)[C@@]4(F)[C@@H](O)C[C@]3(C)[C@]2(C(=O)COC(=O)c2cccnc2)O1 (single isomer, unassigned) [17 B] | 3 γ/animal | 20 γ/animal | 13 γ/animal |  |  |  | 
CCCCC(=O)OCC(=O)[C@@]12OC(C)O[C@@H]1C[C@H]1[C@@H]3CCC4=CC(=O)C=C[C@]4(C)[C@@]3(F)[C@@H](O)C[C@@]12C (single isomer, unassigned) [18 A] | < 3 γ/animal | 33 γ/animal | 70 γ/animal | 33 | 70 | > 11.0 | > 23.3
CCCCC(=O)OCC(=O)[C@@]12OC(C)O[C@@H]1C[C@H]1[C@@H]3CCC4=CC(=O)C=C[C@]4(C)[C@@]3(F)[C@@H](O)C[C@@]12C (single isomer, unassigned) [18 B] | < 3 γ/animal | 10 γ/animal | 10 γ/animal | 10 | 10 | > 3.3 | > 3.3
CCCC1O[C@@H]2C[C@H]3[C@@H]4CCC5=CC(=O)C=C[C@]5(C)[C@@]4(F)[C@@H](O)C[C@]3(C)[C@]2(C(=O)COC(=O)c2cc3ccccc3o2)O1 (single isomer, unassigned) [20 A] | < 3 γ/animal | 50 γ/animal | 90 γ/animal | 50 | 90 | > 16.7 | > 30.0
CCCC1O[C@@H]2C[C@H]3[C@@H]4CCC5=CC(=O)C=C[C@]5(C)[C@@]4(F)[C@@H](O)C[C@]3(C)[C@]2(C(=O)COC(=O)c2cc3ccccc3o2)O1 (single isomer, unassigned) [20 B] | < 3 γ/animal | 5 γ/animal | 20 γ/animal | 5 | 20 | > 1.7 | > 6.7
CCCC1O[C@@H]2C[C@H]3[C@@H]4CCC5=CC(=O)C=C[C@]5(C)[C@@]4(F)[C@@H](O)C[C@]3(C)[C@]2(C(=O)COC(=O)c2cccnc2)O1 (single isomer, unassigned) [21 A] | < 3 γ/animal | 70 γ/animal | 70 γ/animal |  |  |  | 
CCCC1O[C@@H]2C[C@H]3[C@@H]4CCC5=CC(=O)C=C[C@]5(C)[C@@]4(F)[C@@H](O)C[C@]3(C)[C@]2(C(=O)COC(=O)c2cccnc2)O1 (single isomer, unassigned) [21 B] | < 3 γ/animal | 5 γ/animal | 10 γ/animal |  |  |  | 
CCCCC(=O)OCC(=O)[C@@]12OC(CCC)O[C@@H]1C[C@H]1[C@@H]3CCC4=CC(=O)C=C[C@]4(C)[C@@]3(F)[C@@H](O)C[C@@]12C (single isomer, unassigned) [22 A] | < 3 γ/animal | 33 γ/animal | 90 γ/animal | 33 | 90 | > 11.0 | > 30.0
CCCCC(=O)OCC(=O)[C@@]12OC(CCC)O[C@@H]1C[C@H]1[C@@H]3CCC4=CC(=O)C=C[C@]4(C)[C@@]3(F)[C@@H](O)C[C@@]12C (single isomer, unassigned) [22 B] | < 3 γ/animal | 5 γ/animal | 35 γ/animal | 3 | 35 | > 1.7 | > 11.7
CCCC1O[C@@H]2C[C@H]3[C@@H]4C[C@H](F)C5=CC(=O)C=C[C@]5(C)[C@@]4(F)[C@@H](O)C[C@]3(C)[C@]2(C(=O)COC(=O)c2cc3ccccc3o2)O1 (single isomer, unassigned) [25 A] | < 3 γ/animal | 20 γ/animal | 15 γ/animal | 20 | 15 | > 6.7 | > 5.0
CCCC1O[C@@H]2C[C@H]3[C@@H]4C[C@H](F)C5=CC(=O)C=C[C@]5(C)[C@@]4(F)[C@@H](O)C[C@]3(C)[C@]2(C(=O)COC(=O)c2cc3ccccc3o2)O1 (single isomer, unassigned) [25 B] | < 3 γ/animal | 20 γ/animal | 7 γ/animal | 20 | 7 | > 2.9 | > 2.3
